Assay: gradient 5% acetonitrile 3 min, to 50% in 2 min, to 85% in 15 min, held 3 min, 100 µL/min
Details: column: Zorbax Extend-C18 2.1 x 50 mm; eluents: water / acetonitrile, 0.1% formic acid
Procedure, shortened: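 In both positive and negative ionization mode, a quadrupole time-of-flight mass spectrometer coupled to HPLC analyzed pure standards run in mixtures of ~100 molecules. The Zorbax Extend-C18 column (2.1 × 50 mm, 1.8 μm) was operated at 100 μL/min with water and acetonitrile, each containing 0.1% formic acid. The dead volume was 40 μL and the dwell volume 900 μL. Retention time came from adduct peaks that were computationally picked and individually inspected by hand.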

SMILES | RP-LC retention time
Cc1cccc(NC(=O)NC2CCN(c3cc(C)cc(C)c3)C2=O)c1 (centres undefined) | 945 s
Cc1cccc(-c2noc(-c3nnn4c3COC(c3ccc(F)cc3)C4)n2)c1 (centres undefined) | 1210 s
COCCn1c(CCCC(=O)NCc2ccccn2)nc2cccnc21 | 545 s
Cc1ccc(NC(=O)COc2cc(C)nc(N3CCN(c4ccccc4)CC3)n2)c(C)c1 | 914 s
CC(C)(C)C(=O)Nc1ccc(N2CCC(N3CCCCC3)CC2)cc1C(=O)O | 615 s
Cc1cc(=O)n(CC(=O)Nc2cccc(C(F)(F)F)c2)c(N2CCN(c3ccccc3)CC2)n1 | 969 s
COC(=O)C1=CN(c2ccc(OC)c(OC)c2)c2cc(F)ccc2S1(=O)=O | 821 s
CC(=O)c1c(C)n(CC(=O)NCc2cc3c(cc2C)OCCCO3)c2ccccc12 | 826 s
CSc1ccccc1C(=O)N1CCN(C(=O)C2CC2c2ccc3c(c2)OCO3)CC1 (centres undefined) | 754 s
CSc1cccc(NC(=O)Cn2ccn3nc(-c4ccccc4)c(CO)c3c2=O)c1 | 852 s
O=C(CN1C(=O)CC(c2ccccc2)S(=O)(=O)c2ccccc21)NCCc1ccccc1 (centres undefined) | 855 s
O=C(CSc1ncccn1)Nc1nc(-c2ccccc2)cs1 | 837 s
Cc1nc2nc(-c3ccc(C(C)(C)C)cc3)nn2c(C)c1CC(=O)N(C)Cc1ccccc1 | 1110 s
CC(C)CNC(=O)C1CCCN(c2nc3ccsc3c(=O)n2Cc2ccc(F)cc2)C1 (centres undefined) | 912 s
CCN1C(=O)c2cccnc2Sc2cc(NC(C)=O)ccc21 | 627 s
Cc1sc2ccn(C)c(=O)c2c1C(=O)NC1CCCCCC1 | 804 s
CCCNC(=O)c1cn(CCC)nc1S(=O)(=O)N1CCN(c2ccccc2OCC)CC1 | 1080 s
CCN(CC)c1ncnc2c(-c3ccccc3)cn(CC(=O)NCCc3ccc(OC)c(OC)c3)c12 | 726 s
O=C(c1c2c(nn1C1CCS(=O)(=O)C1)CCC2)N1CCC(Cc2ccccc2)CC1 (centres undefined) | 849 s
CCCCC(=O)N1CCC2(C1)C(=O)N(C)c1ccc(OC)cc12 (centres undefined) | 744 s
COc1ccc(-c2c(C)noc2NC(C)=O)cc1S(=O)(=O)Nc1ccc(C)cc1C | 804 s
CC(C)N1CC2(CCN(S(=O)(=O)c3ccccc3)CC2)C1c1ccccc1 (centres undefined) | 690 s
CCC(Oc1ccc(-c2cnc3ccccc3n2)cc1)C(=O)N1CCN(c2ncccn2)CC1 (centres undefined) | 942 s

SMILES | RP-LC retention time
CC(C)C(=O)Nc1ccc(CCc2nc3ccc(C(=O)NC4CC4)cc3[nH]2)cc1 | 594 s
O=C(CN1C(=O)C2CCCCN2c2ccc(S(=O)(=O)N3CCCC3)cc21)NC1CC1 (centres undefined) | 770 s
COc1ccccc1NC(=O)NC1CCCC(OC(=O)Nc2ccc(F)cc2)C1 (centres undefined) | 883 s
O=C(Cc1csc(-c2ccccc2)n1)Nc1nc(-c2ccccc2Cl)cs1 | 1210 s
COCc1nc(-c2ccc(OC3CCN(C(=O)C4(c5ccc(OC)cc5)CC4)C3)cc2)no1 (centres undefined) | 896 s
CCCCN(C)C(=O)Cn1nc(C)c2sc(-c3ccccc3)nc2c1=O | 865 s
CS(=O)(=O)NC1CCN(C(=O)C2CCCC2)C1 (centres undefined) | 691 s
O=C(NCCc1csc(-c2ccccc2)n1)C1CCN(S(=O)(=O)c2ccc(F)cc2)CC1 | 928 s
COc1ccc(S(=O)(=O)Nc2cc(-c3cn4cccc(C)c4n3)ccc2C)cc1C | 707 s
CCNC(=O)C1CCN(c2nccc3sccc23)CC1 | 558 s
Cc1nn(CC(=O)NCC2CCCO2)c(=O)c2nn(-c3ccccc3)c(C)c12 (centres undefined) | 651 s
COCCN1CCCc2ccc(NC(=O)c3cccc(Br)c3)cc21 | 993 s
CCCCn1nc2ccc(S(=O)(=O)N3CCC(C)CC3)cn2c1=O | 970 s
COc1ccc(N2CC(c3nnc(NC(=O)c4ccccc4Br)o3)CC2=O)cc1 (centres undefined) | 703 s
CCOc1ccc(NC(=O)NCC(c2cccnc2)c2cn(C)c3ccccc23)cc1 (centres undefined) | 703 s
Cc1ccc(Nc2c(-c3ccc(Cl)cc3)nc3ncccn23)cc1Cl | 1020 s
CN(Cc1nc(-c2ccc(N3CCCC3)nc2)no1)C1CCCCC1 | 569 s
CC(C)C(=O)N1N=C(c2ccc(NS(=O)(=O)c3ccccc3)cc2)CC1c1ccco1 (centres undefined) | 870 s
Cc1ccc(CNC(=O)N2CCCC2c2cc(C)on2)cc1 (centres undefined) | 798 s
CCCc1cc(C2CCCN2C(=O)NCCc2ccccc2)no1 (centres undefined) | 874 s
O=C(Cc1csc(-c2c(Cl)cccc2Cl)n1)NCCc1c[nH]c2ccccc12 | 925 s
CCCSCCCNC(=O)CN1C(=O)CCn2nc(-c3cn(C)c4ccccc34)cc21 | 832 s
CCn1cc(CCN2CCC(C(=O)N3CCCCC3)CC2)c2cccnc21 | 587 s

SMILES | RP-LC retention time
Cn1cnc(S(=O)(=O)N2CCC(C(=O)NC3CCCCC3)CC2)c1 | 659 s
Cc1nc(CC(=O)NC(C)c2ccccc2)sc1C(=O)NCC(C)C (centres undefined) | 763 s
Cc1ccc(C(=O)N2CCN(c3ccc(=O)n(-c4cccc(Cl)c4)n3)CC2)s1 | 891 s
COc1ccc(N2CCN(c3nccc4ccc(C(=O)NCCC5=CCCCC5)cc34)CC2)cc1 | 888 s
Cc1nc(-c2ccccc2Cl)sc1C(=O)NCCc1c[nH]c2ccccc12 | 1020 s
COc1ccc(OCCN2CC(=O)N(c3ccc(C)c(C)c3)[C@@H]3CS(=O)(=O)C[C@@H]32)cc1 | 859 s
CNC(=O)[C@H]1O[C@@H](n2cnc3c(NCc4cccc(I)c4)ncnc32)C(O)[C@H]1O (some centres undefined) | 730 s
Cc1ccc(S(=O)(=O)NCCn2c(C)cnc2C2CCC2)cc1F | 637 s
Cc1cc(C)n(Cc2nc(-c3ccc(NC(=O)c4ccc5c(c4)OCO5)cc3)oc2C)n1 | 888 s
N#CC1(C(=O)NCCc2cccs2)CC1 | 708 s
O=C(CCS(=O)(=O)c1ccccc1)Nc1nc(-c2cc(Cl)sc2Cl)cs1 | 1060 s
CCn1nccc1C(=O)N1CCC(Nc2ncnc3c2CCC3)CC1 | 557 s
O=C(NCc1ccc(-n2ccnc2)cc1)c1ccccc1C(F)(F)F | 610 s
Cn1c(=O)c(N2CCC(NC(=O)Nc3ccc(Cl)cc3)CC2)nc2ccccc21 | 904 s
CCCS(=O)(=O)N1CCCC(Cn2cc(COc3ccc4c(c3)CCC4)nn2)C1 (centres undefined) | 997 s
CC1CCN(S(=O)(=O)c2ccc3c(ccn3CC(=O)NCC(C)c3ccccc3)c2)CC1 (centres undefined) | 1070 s
CCCn1cc(CCNC(=O)Nc2ccc(Br)cc2)c2cccnc21 | 835 s
COc1ccc(S(=O)(=O)NC2CCN(C(=O)CCc3c[nH]c4ccccc34)CC2)cc1 | 788 s
O=C(NCc1ccc(F)cc1F)c1ccc(OCC(=O)C2CC2)cc1 | 784 s
COc1cc(NC(=O)N2CCN(Cc3nc4ccc(C)cc4o3)CC2)cc(OC)c1OC | 669 s
O=C(Nc1ccc(Cl)cc1)C1CCc2sc(C(=O)N3CCOCC3)cc2C1 (centres undefined) | 759 s
O=c1c2sccc2n(Cc2nc(-c3ccc(Cl)cc3)no2)c(=O)n1-c1ccccc1F | 1070 s
Cc1nc2ccc(C(=O)NC(C)C)cc2nc1C | 649 s

SMILES | RP-LC retention time
Cc1nnc(N2CCCC(C(=O)NCCCc3ccccc3)C2)c2nn(-c3ccccc3)c(C)c12 (centres undefined) | 762 s
COc1cccc(-c2cc3n(n2)CCCN(C(=O)COc2ccccc2)C3)c1 | 788 s
O=C(CCCn1nnc2cc(S(=O)(=O)N3CCCC3)ccc21)N1CCCc2ccccc21 | 873 s
Cc1cc(-c2csc(S(=O)(=O)NCCc3ccc(S(N)(=O)=O)cc3)c2)on1 | 744 s
O=C(CCCS(=O)(=O)c1ccc(F)cc1)Nc1ncnc2sccc12 | 649 s
CCOC(=O)C1CCN(C(=O)c2nnc(-c3ccc(S(=O)(=O)N4CCOCC4)cc3)o2)CC1 | 826 s
CSc1ncccc1C(=O)N(Cc1ccsc1)Cc1ccccn1 | 690 s
Cc1ccc(-c2noc(C3CCCN3S(=O)(=O)c3ccc(C(C)(C)C)cc3)n2)cc1 (centres undefined) | 788 s
CCOC(=O)c1c(C)oc2nc(C)nc(NC3CCN(Cc4ccccc4)CC3)c12 | 597 s
O=C(NCCN1CCCCC1)C1CCN(c2nc3cccnc3s2)CC1 | 581 s
Cc1ccc(NC(=O)CCC(=O)N2CCSc3nc(C)cc(C)c32)cc1 | 717 s
CCC(NC(=O)C1CCN(c2cncnc2N2CCOCC2)CC1)c1ccc(OC)cc1 (centres undefined) | 643 s
CCCC(=O)Nc1sccc1C(N)=O | 625 s
Cc1nc(CC(=O)NCc2ccccc2C(F)(F)F)sc1C(=O)NCC(C)C | 847 s
CCCCOC(=O)C1=C(C)NC(=O)NC1c1ccc(OCCC)c(OC)c1 (centres undefined) | 884 s
c1ccc2c(-c3nnc(C4CC4)o3)nnc(NC3CCCCC3)c2c1 | 793 s
CCC1CCCCN1CCCNC(=O)CCc1cc2cc(OC)ccc2[nH]c1=O (centres undefined) | 596 s
Cc1ccc(Nc2nc(NCCO)c3cnn(C)c3n2)cc1C | 610 s
COC(=O)c1onc(C(=O)c2ccccc2)c1C(=O)OC | 931 s
Cc1cc(-c2ccccc2)nc(Nc2nc(-c3ccccc3)c(CC(=O)O)s2)n1 | 922 s

From the METLIN SMRT retention time set (Domingo-Almenara et al. 2019)
